Source: patent publication US20120244102A1, “AGENT FOR PREVENTING OR TREATING CROHN'S DISEASE, COMPRISING ORGANIC ACID POLYMER” (SANWA KAGAKU KENKYUSHO CO., LTD., priority 2010, published 2012)

Tested on: mouse TNBS-induced Crohn's disease model
Experiment: mouse TNBS-induced Crohn's disease model (pathological score, intestinal lesion score)
Format: in vivo
Conditions: for intestinal lesion score: scale 0-10, control group 8.1
Description: Seven-week-old male BALB/c Cr Slc mice were purchased from Japan SLC, Inc. After 5 days of breeding for taming, the mice were divided into 5 groups so as to eliminate the difference between body weights, and subjected to an experiment.
The hair on 2 square-cm of the abdomen of the mouse was shaved, and 1% TNBS was applied to the skin. At 7 days after the application of TNBS, the mouse was fixed under anesthesia by halothane inhalation, and 100 μL of 2.0% TNBS was injected from the rectum to initiate intestinal lesions in Crohn's disease.
In the propagermanium-administered group, 0.015% of the propagermanium was mixed with a standard feedstuff for mice CRF-1 (manufactured by Oriental Yeast Co., Ltd.) and administered by ad libitum feeding from immediately after the injection of TNBS to 3 days after the initiation. The average dose during the period of the administration of the propagermanium was calculated to be about 7.5 mg/kg/day as a dose of the propagermanium per day, from the body weight and food consumption.
In the prednisolone-administered group as a positive control, prednisolone was administered once a day as 10 mL/kg of 0.5% CMC suspension using an oral canula for mice from immediately after the injection of TNBS to 3 days after the initiation. The dose was set to be 1 mg/kg/day that is the maximum amount of a clinical general dose (30 to 40 mg/day/person).
In the salazosulfapyridine-administered group as a positive control, salazosulfapyridine was administered twice a day for 3 days as 10 mL/kg of 0.5% CMC suspension using an oral canula for mice from immediately after the injection of TNBS to 3 days after the initiation. Two dose groups: a low dose group (133 mg/kg/day) that is the maximum amount in view of a clinical general dose and a high dose group (400 mg/kg/day) that is effective in rat TNBS models, were set.
At 1, 2 and 3 days after the TNBS initiation, the pathological score (the total of the scores of weight-loss, diarrhea/loose stool and occult blood/hemorrhage) was evaluated according to the following criteria.
(A) Weight-loss score (when the body weight before the TNBS initiation is considered to be 100%) • 0: No decrease • 1: Decreased by within 5% • 2: Decreased by 5-10% • 3: Decreased by 10-20% • 4: Decreased by more than 20%
(B) Diarrhea/loose stool score • 0: Normal. A solid form is maintained. • 2: Semi-solid loose stool. Wet, and readily collapses when being touched. • 4: Diarrhea, with flowability.
(C) Occult blood/hemorrhage score • 0: Normal. No blood is incorporated in stool. • 2: Occult blood. Blood is incorporated in stool. Perianal is slightly dirty. • 4: Bloody stool. Blood is incorporated in stool. Perianal is dirty with blood.
At 3 days after the TNBS initiation, Evans Blue was administered intravenously. At 30 minutes after the administration, the mouse was sacrificed by cervical dislocation, from the colon to the anus were excised and the inner cavity was washed with physiological saline, the lumen was opened, and the degree of the lesions was scored. The intestinal lesion score was evaluated by observing the colon by using a stereomicroscope according to the following criteria. • 0: No damage. • 1: Hyperemia • 2: Hyperemia and thickening of gut walls. No ulcer. • 3: Ulcer is present, but is not thickened. • 4: Plural lesion sites are present. • 5: Widespread lesion sites (1 cm or more in total) • 6: Widespread lesion sites (1.5 cm or more in total) • 7: Widespread lesion sites (2 cm or more in total) • 8: Widespread lesion sites (2.5 cm or more in total) • 9: Widespread lesion sites (3 cm or more in total) • 10: Widespread lesion sites (3.5 cm or more in total)

Molecule: 3-oxygermylpropionic acid polymer [propagermanium]
- pathological score (total of weight-loss, diarrhea/loose stool and occult blood/hemorrhage scores) (7.5 mg/kg propagermanium mixed in feed, 2 days after the TNBS initiation): significant effect of improving the pathological score was confirmed
- pathological score (total of weight-loss, diarrhea/loose stool and occult blood/hemorrhage scores) (7.5 mg/kg propagermanium mixed in feed, 3 days after the TNBS initiation): significant effect of improving the pathological score was confirmed

Molecule: C[C@]12C=CC(=O)C=C1CC[C@@H]1[C@@H]2[C@@H](O)C[C@@]2(C)[C@H]1CC[C@]2(O)C(=O)CO [prednisolone]
- pathological score (total of weight-loss, diarrhea/loose stool and occult blood/hemorrhage scores) (1 mg/kg prednisolone oral, 2 days after the initiation): effect was not observed
- pathological score (total of weight-loss, diarrhea/loose stool and occult blood/hemorrhage scores) (1 mg/kg prednisolone oral, 3 days after the initiation): effect was observed
- intestinal lesion score (prednisolone 1 mg/kg oral, 3 days after the TNBS initiation): 5.2

Molecule: O=C(O)c1cc(/N=N/c2ccc(S(=O)(=O)Nc3ccccn3)cc2)ccc1O [salazosulfapyridine]
- pathological score (total of weight-loss, diarrhea/loose stool and occult blood/hemorrhage scores) (133 mg/kg salazosulfapyridine oral (low dose group)): significant improving effect was not observed
- pathological score (total of weight-loss, diarrhea/loose stool and occult blood/hemorrhage scores) (400 mg/kg salazosulfapyridine oral (high dose group), 2 days after the initiation): improving effect was found
- pathological score (total of weight-loss, diarrhea/loose stool and occult blood/hemorrhage scores) (400 mg/kg salazosulfapyridine oral (high dose group), 3 days after the initiation): improving effect was found
- intestinal lesion score (salazosulfapyridine 133 mg/kg oral, 3 days after the TNBS initiation): 6.1
- intestinal lesion score (salazosulfapyridine 400 mg/kg oral, 3 days after the TNBS initiation): 6.8
